# Data from patent US20070142462A1, “Method of Treating Cancer” (The University of Utah, priority 2000, published 2007).
# Assays:
# [1] = system: cyclin B1 and p34-cdc2 kinase; test: Immunoblot of cyclins, cyclin-associated kinases, inhibitors, p53; type: cell-based, human; conditions: M1619
# Experimental: The effect of antioxidants on expression of cell cyclins, cyclin-associated kinases, cell cycle inhibitors and IκBα was studied by incubating near confluent cell cultures with antioxidant treatments for 15 min-48 hours. Cells were lysed and protein levels were measured by immunoblot assay as described below. In other experiments, the ratio of phosphorylated-IκBα to total IκBα was determined by harvest of cytosolic protein 24 hours after treating cultures with 3,000 U/ml catalase.
# Immunoassay for Proteins. Cells were lysed and proteins were isolated and quantitated by immunoassay as previously detailed, using 2 μg/ml of primary rabbit polyclonal antibodies against human p53, the cyclins D1, E, A and B1, the cyclin-associated kinases cdk2 and cdc2, the cyclin kinase inhibitors p21^WAF1/Cip1 and p27, and peroxidase-labeled donkey polyclonal anti-rabbit IgG. […] Cells were placed on ice, washed twice with cold DPBS, scraped into 0.5 ml boiling buffer (10% [vol/vol] glycerol and 2% [wt/vol] sodium dodecyl sulfate [SDS] in 83 mM Tris, pH 6.8) and sheared by four passages through a pipette. Aliquots were removed for protein determination, using the BCA protein assay (Pierce). […] Immunoblots were rinsed again as above and detected using an enhanced chemiluminescence method (ECL Western blotting detection system, Amersham Life Science, Buckinghamshire, England) and autoradiography. […]
# NF-κB = test: EMSA of constitutive nuclear NF-κB DNA binding, MDA-MB-453; type: cell-based, human; conditions: MDA-MB-453 breast carcinoma; catalase 3,000 U/ml for 24 hours
# Experimental: The effect of antioxidants on nuclear activation of NF-κB was studied by incubating near confluent (70%) cell cultures with antioxidant treatments for 1-48 hours. Nuclear protein was harvested, and EMSAs were performed using DNA consensus binding sequences, or nuclear translocation of the p65 component of NF-κB was studied by immunoperoxidase staining, as outlined below.
# Electrophoretic Mobility Shift Assays (EMSAs). Nuclear protein was isolated and DNA binding reactions were performed as previously described in detail, Kennedy et al., Am. J. Respir. Cell Mol. Biol. 19:366-378 (1998). Monolayers were washed twice in cold DPBS and equilibrated 10 min on ice with 0.7 ml cold cytoplasmic extraction buffer, CEB (10 mM Tris, pH 7.9, 60 mM KCl, 1 mM EDTA, 1 mM DTT) with protease inhibitors, PI (1 mM Pefabloc, 50 μg/ml antipain, 1 μg/ml leupeptin, 1 μg/ml pepstatin, 40 μg/ml bestatin, 3 μg/ml E-64 and 100 μg/ml chymostatin). […] DNA-protein binding reactions were performed with 2 μg of nuclear protein (as determined by the Pierce method) and 30-80,000 cpm of ^32P-end-labelled double-stranded DNA probe in 10 mM Tris-HCl, pH 7.5, 50 mM NaCl, 0.5 mM EDTA, 0.5 mM DTT, 1 mM MgCl2, 50 μg/ml poly dI-dC, and 4% glycerol. […] Gels were dried and analyzed by autoradiography at −80° C. using an image intensifier screen. […]
substance,measurement,setting,value
Catalase,expression of cyclin B1 and its associated kinase p34-cdc2,"[1]; 3,000 U/ml catalase",significant decrease
same,"protein levels of cyclins D1, E, A, cdk2, p53, p21WAF1/Cip1, p27","[1]; catalase-treated vs controls, data not shown",did not decrease
same,constitutive nuclear DNA binding activity for NF-κB,NF-κB,suppressed
